Measured values published in patent US6544502B2, “Skin treatment with a water soluble antibiotic dissolved in an electrolyzed water” (Wasatch Pharmaceutical Inc., priority 1992, dated 2003).

What was measured:
[1] = Stability of antibiotic in aqueous solution; assay type: physicochemical; conditions: hydrate salt in water
[2] = Solubility of antibiotic (water, lipoid); assay type: physicochemical

lipoid solubility [2]: high degree of lipoid solubility
solubility in water [2]: readily soluble in water
Substance: Doxycycline hyclate
stability of water soluble salt [1]: no pH sensitivity or breakdown into the inactive ingredients
